Data taken from PubChem BioAssay AID2060616 (Molecular Pharmacology Branch, DTP, NCI, 2025).
pIC50: −log10 of the molar value.

System: 377384-186-R-J1-PDC complex spheroid viability
Assay: Anticancer human tumor 377384-186-R-J1-PDC patient-derived pancreatic carcinoma cell line growth inhibition [CLK]
Conditions: for pIC50: curve of first compound; for viability, T/C: stronger effect = lower value
How it was run: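 Multi-cell-type spheroids combined patient-derived tumor cells with HUVEC endothelial cells and human mesenchymal stem cells. Paired agents were dosed in half-log steps down from about clinical Cmax, or from 10 microM where Cmax was unknown.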
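Also: spheroids exposed to agents for 7 days before reading.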
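For viability, T/C in this document: luminescence signal used as a stand-in for viable cells.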

`C=CC(=O)Nc1cc(Nc2nccc(-c3cn(C)c4ccccc34)n2)c(OC)cc1N(C)CCN(C)C` + CNC(=O)c1ccc(Nc2nc(OC3CCCC3)c3c(-c4ccc5nc(C)oc5c4)c[nH]c3n2)c(OC)c1 was tested, and the pIC50 (second compound 0.0316 µM) was less than 6.52, the pIC50 (second compound 0.1 µM) was 7.27 and the pIC50 (second compound 0.316 µM) was greater than 9.02. The pIC50 (second compound 1 µM) was greater than 9.02, the pIC50 (second compound 3.16 µM) was greater than 9.02 and the pIC50 (second compound 10 µM) was greater than 9.02. It also gave a viability, T/C (second compound 0.0316 µM, first compound 0.000949 µM) of 91.5%, a viability, T/C (second compound 0.0316 µM, first compound 0.003 µM) of 109% and a viability, T/C (second compound 0.0316 µM, first compound 0.00949 µM) of 99.2%. It also gave a viability, T/C (second compound 0.0316 µM, first compound 0.03 µM) of 103%, a viability, T/C (second compound 0.0316 µM, first compound 0.0949 µM) of 86.3% and a viability, T/C (second compound 0.0316 µM, first compound 0.3 µM) of 59%. It also gave a viability, T/C (second compound 0.1 µM, first compound 0.000949 µM) of 64.1%, a viability, T/C (second compound 0.1 µM, first compound 0.003 µM) of 63.5% and a viability, T/C (second compound 0.1 µM, first compound 0.00949 µM) of 55.7%. For the same compound, the viability, T/C (second compound 0.1 µM, first compound 0.03 µM) was 59.4%, the viability, T/C (second compound 0.1 µM, first compound 0.0949 µM) was 42.8% and the viability, T/C (second compound 0.1 µM, first compound 0.3 µM) was 29.7%. The viability, T/C (second compound 0.316 µM, first compound 0.000949 µM) was 20.6%, the viability, T/C (second compound 0.316 µM, first compound 0.003 µM) was 23.6% and the viability, T/C (second compound 0.316 µM, first compound 0.00949 µM) was 20.6%. It also gave a viability, T/C (second compound 0.316 µM, first compound 0.03 µM) of 17.2%, a viability, T/C (second compound 0.316 µM, first compound 0.0949 µM) of 17.3% and a viability, T/C (second compound 0.316 µM, first compound 0.3 µM) of 17%. It also gave a viability, T/C (second compound 1 µM, first compound 0.000949 µM) of 17.7%, a viability, T/C (second compound 1 µM, first compound 0.003 µM) of 18.1% and a viability, T/C (second compound 1 µM, first compound 0.00949 µM) of 21.8%. For the same compound, the viability, T/C (second compound 1 µM, first compound 0.03 µM) was 19.2%, the viability, T/C (second compound 1 µM, first compound 0.0949 µM) was 16.7% and the viability, T/C (second compound 1 µM, first compound 0.3 µM) was 16.7%. For the same compound, the viability, T/C (second compound 3.16 µM, first compound 0.000949 µM) was 20.1%, the viability, T/C (second compound 3.16 µM, first compound 0.003 µM) was 20.9% and the viability, T/C (second compound 3.16 µM, first compound 0.00949 µM) was 21.1%. For the same compound, the viability, T/C (second compound 3.16 µM, first compound 0.03 µM) was 19.5%, the viability, T/C (second compound 3.16 µM, first compound 0.0949 µM) was 17.9% and the viability, T/C (second compound 3.16 µM, first compound 0.3 µM) was 14.8%. For the same compound, the viability, T/C (second compound 10 µM, first compound 0.000949 µM) was 18.9%, the viability, T/C (second compound 10 µM, first compound 0.003 µM) was 21.2% and the viability, T/C (second compound 10 µM, first compound 0.00949 µM) was 18.1%. For the same compound, the viability, T/C (second compound 10 µM, first compound 0.03 µM) was 19.4%, the viability, T/C (second compound 10 µM, first compound 0.0949 µM) was 17.6% and the viability, T/C (second compound 10 µM, first compound 0.3 µM) was 15.3%.
